Reference: the NIST ThermoML archive (doi:10.1021/je100864e)

Assay: mn = molality of the nth substance listed, in mol/kg
Settings: 101 kPa, Liquid; for speed of sound: Pulse-echo method

O=C([O-])CC(O)(CC(=O)[O-])C(=O)O.[Na+].[Na+] [disodium hydrogen citrate] + O
mass density [kg/m3]
Settings	288.15 K	293.15 K	298.15 K	303.15 K	308.15 K
m1 = 0.0095	1000.55	999.632	998.455	997.044	995.414
m1 = 0.0114	1000.84	999.92	998.74	997.324	995.691
m1 = 0.0133	1001.13	1000.21	999.021	997.605	995.97
m1 = 0.015	1001.38	1000.46	999.268	997.849	996.213
m1 = 0.0172	1001.71	1000.78	999.588	998.164	996.524
m1 = 0.0187	1001.93	1000.99	999.8	998.374	996.735
m1 = 0.021	1002.28	1001.35	1000.15	998.719	997.077
m1 = 0.0229	1002.56	1001.62	1000.42	998.99	997.344
m1 = 0.0267	1003.12	1002.18	1000.97	999.532	997.881
m1 = 0.0307	1003.73	1002.77	1001.56	1000.12	998.461
m1 = 0.0344	1004.28	1003.32	1002.1	1000.65	998.99
m1 = 0.0374	1004.73	1003.76	1002.54	1001.09	999.421
m1 = 0.057	1007.64	1006.63	1005.38	1003.9	1002.21
m1 = 0.0771	1010.58	1009.54	1008.25	1006.75	1005.03
m1 = 0.0953	1013.22	1012.15	1010.84	1009.31	1007.58
m1 = 0.1157	1016.16	1015.05	1013.71	1012.16	1010.4
m1 = 0.1332	1018.67	1017.54	1016.17	1014.59	1012.82
m1 = 0.1542	1021.64	1020.48	1019.09	1017.48	1015.68
m1 = 0.1773	1024.9	1023.7	1022.26	1020.63	1018.81
m1 = 0.1964	1027.57	1026.33	1024.88	1023.22	1021.38
m1 = 0.2144	1030.07	1028.81	1027.33	1025.66	1023.8
m1 = 0.2229	1031.25	1029.97	1028.48	1026.8	1024.93
m1 = 0.2509	1035.09	1033.78	1032.26	1030.54	1028.64
m1 = 0.283	1039.47	1038.11	1036.55	1034.8	1032.87
m1 = 0.2965	1041.3	1039.92	1038.34	1036.58	1034.63
m1 = 0.3375	1046.82	1045.39	1043.77	1041.96	1039.98

O=C([O-])CC(O)(CC(=O)O)C(=O)O.[Na+] [sodium dihydrogen citrate] + O
Settings	mass density, 288.15 K [kg/m3]	mass density, 293.15 K [kg/m3]	mass density, 298.15 K [kg/m3]	mass density, 303.15 K [kg/m3]	mass density, 308.15 K [kg/m3]	speed of sound, 288.15 K [m/s]	speed of sound, 293.15 K [m/s]	speed of sound, 298.15 K [m/s]	speed of sound, 303.15 K [m/s]	speed of sound, 308.15 K [m/s]
m1 = 0.0093	1000.17	999.26	998.086	996.675	995.048	1467.7	1483.7	1497.9	1510.2	1520.8
m1 = 0.0117	1000.44	999.519	998.341	996.93	995.3	1467.9	1483.9	1498.1	1510.4	1521
m1 = 0.0125	1000.53	999.616	998.436	997.022	995.39	1468	1484	1498.2	1510.5	1521.1
m1 = 0.0138	1000.68	999.756	998.576	997.161	995.527	1468.1	1484.1	1498.3	1510.6	1521.2
m1 = 0.0155	1000.87	999.956	998.772	997.353	995.72	1468.3	1484.3	1498.5	1510.8	1521.4
m1 = 0.0163	1000.97	1000.04	998.856	997.436	995.802	1468.4	1484.4	1498.5	1510.8	1521.4
m1 = 0.0187	1001.24	1000.31	999.125	997.702	996.063	1468.7	1484.7	1498.8	1511	1521.6
m1 = 0.0202	1001.42	1000.49	999.296	997.872	996.232	1468.9	1484.8	1498.9	1511.2	1521.8
m1 = 0.0209	1001.49	1000.56	999.364	997.94	996.299	1468.9	1484.9	1499	1511.3	1521.8
m1 = 0.024	1001.85	1000.91	999.72	998.29	996.648	1469.3	1485.2	1499.3	1511.5	1522.1
m1 = 0.0279	1002.29	1001.35	1000.15	998.715	997.067	1469.8	1485.6	1499.7	1511.9	1522.4
m1 = 0.0327	1002.84	1001.89	1000.68	999.246	997.594	1470.2	1486	1500.1	1512.3	1522.8
m1 = 0.0376	1003.39	1002.44	1001.22	999.776	998.119	1470.8	1486.6	1500.6	1512.7	1523.2
m1 = 0.0409	1003.78	1002.82	1001.6	1000.15	998.486	1471.1	1486.9	1500.9	1513.1	1523.5
m1 = 0.047	1004.47	1003.49	1002.27	1000.81	999.141	1471.8	1487.6	1501.5	1513.6	1524
m1 = 0.0681	1006.85	1005.84	1004.59	1003.11	1001.41	1474	1489.7	1503.5	1515.5	1525.8
m1 = 0.0937	1009.71	1008.67	1007.38	1005.86	1004.15	1476.8	1492.3	1505.9	1517.8	1527.9
m1 = 0.1194	1012.55	1011.47	1010.14	1008.6	1006.86	1479.5	1494.8	1508.3	1520	1530.1
m1 = 0.144	1015.25	1014.13	1012.77	1011.2	1009.44	1482	1497.2	1510.5	1522.1	1532
m1 = 0.1678	1017.83	1016.68	1015.29	1013.7	1011.91	1484.6	1499.6	1512.7	1524.2	1534
m1 = 0.1911	1020.35	1019.17	1017.76	1016.13	1014.32	1487	1501.8	1514.9	1526.2	1535.8
m1 = 0.2165	1023.07	1021.86	1020.42	1018.77	1016.93	1489.5	1504.1	1517	1528.2	1537.8
m1 = 0.2412	1025.7	1024.45	1022.98	1021.31	1019.45	1492	1506.5	1519.3	1530.3	1539.8
m1 = 0.2934	1031.2	1029.89	1028.36	1026.63	1024.72	1497.3	1511.5	1524	1534.7	1543.9
m1 = 0.3205	1034.04	1032.69	1031.13	1029.38	1027.44	1500	1514	1526.3	1537	1546
m1 = 0.3395	1036.01	1034.64	1033.06	1031.28	1029.33	1501.8	1515.8	1528	1538.5	1547.5
m1 = 0.3728	1039.43	1038.03	1036.41	1034.6	1032.62	1505.1	1518.8	1530.9	1541.2	1550
m1 = 0.3936	1041.57	1040.14	1038.5	1036.67	1034.67	1507.1	1520.7	1532.7	1542.9	1551.6
